Experimental findings from publication PMC11555231 (Nature Communications, 2024) are described below.

In assay [1] the test system is human neutrophils. As to the kind of experiment: Time-lapse imaging and NET quantification (NETosis). The format is cell-based. The method, then:
(§1) Peripheral venous blood was isolated from consenting healthy adult volunteers in heparin tubes as previously described. Briefly, blood samples were on Histopaque 1119 (Sigma-Aldrich) and then centrifuged for 20 min at 800 × g. The plasma was collected and centrifuged for a second time for 20 min at 800 × g. The neutrophil layer was collected and washed in Hyclone Hank’s Balanced Salt Solution (HBSS) -Ca, -Mg, -Phenol red (GE Healthcare) supplemented with 10 mM HEPES (Invitrogen) 0.1% FBS and further purified with a discontinuous Percoll (GE Healthcare) gradient consisting of layers with densities of 85, 80, 75, 70 and 65% and centrifuged for 20 min at 800 × g. Neutrophil-enriched layers were then collected and washed, and neutrophil purity was assessed using flow cytometry.
About 5 × 10^4 human neutrophils were seeded in a black 96-well plate (PerkinElmer) in HyClone HBSS +Ca, +Mg, - Phenol red (GE Healthcare) containing 10 mM HEPES (Invitrogen). Cells were pre-incubated with the corresponding peptide for 60 min prior to the start of the experiment. DNA of live cells was stained with 4 µg/mL Hoechst (membrane permeable; Thermo Scientific) and DNA from dead cells with 0.2 µM Sytox-green (membrane impermeable; Invitrogen). Cells were stimulated with 100 nM PMA, 5 µM Ca-Ionophore or 0.1 mg/mL cholesterol crystals at the start of the microscope acquisition. Plates stimulated with cholesterol crystals were centrifuged at 300×g for 5 min at RT immediately prior to microscope acquisition. The cells were imaged on an inverted Nikon wide-field microscope system at 37 °C and CO2 (5%). Four fields of view were acquired per well every 15 mins for 10–15 h using a 40x objective. NETs were differentiated from necrotic cells by the size of the sytox signal using FIJI[86]. […] [85]. Area measurements were distributed into bins of increasing area sizes and plotted as a percentage of the total number of Sytox-green positive (dead) cells.

The subject of assay [2] is human neutrophils. As to the kind of experiment: Ca-ionophore stimulated neutrophils, citrullinated H3 immunostaining and confocal microscopy / immunoblot. The format is cell-based. The note with it: sheet Figure_3G, Ca-I + peptide. The method, then:
as §1
About 5 × 10^4 sorted neutrophils were seeded in 24-well cell culture plates containing glass coverslips in HyClone HBSS +Ca, +Mg, - Phenol red (GE Healthcare) supplemented with 10 mM HEPES (Invitrogen). Neutrophils were stimulated with 5 µM Ca-Ionophore (Sigma) and fixed for 20 min at room temperature with 2% paraformaldehyde at RT. Cells were then washed and permeabilized with 0.5% Triton X-100 in PBS. Non-specific binding was blocked with 2% BSA (Sigma) and 2% donkey serum (Sigma) in PBS. Samples were stained with DAPI (Life Technologies), the rabbit anti-CitH3 (Abcam; ab5103 1:500) and donkey anti-rabbit alexa488 (Invitrogen; A21206). Fluorescence imaging was performed on a Leica TCS SP8 inverted confocal microscope using sequential scan in between frames mode with a 20x objective.
Neutrophil samples were boiled in a sodium dodecyl sulphate (SDS) buffer containing dithiothreitol (DTT) and run on a polyacrylamide gel electrophoresis (SDS-PAGE) using Criterion TGX precast gels (Any-KD; Bio-Rad Laboratories). Proteins were then transferred to a PVDF membrane (Bio-Rad Laboratories) via semi-dry transfer. The membrane was blocked with 5% BSA (Fisher Scientific) in Tris-buffered saline with 0.1% Tween-20 (TBS-T). Levels of citrullinated histone H3, total H3 and myeloperoxidase (MPO) were assessed by incubating membranes in either anti-histone H3 citrulline R2 + R8 + R17 (Abcam; ab5103 1:1000), anti-histone H3 (Millipore; 07-690 1:10000) or anti-MPO (DAKO; A0398 1:2500) overnight at 4 °C, respectively. For cell lysate-based assays and pull-down assays, membranes were incubated as above with anti-hPADI4 (Abcam; ab50332; 1:1000 in 5% BSA/TBS-T), anti-Bcr (Cell Signalling #3902S; 1:1000 in 3% milk/TBS-T) and anti-Impdh2 (Cell Signalling #57068S; 1:1000 in 3% milk/TBS-T). Membranes were washed in 0.1% TBS-T and subsequently incubated with goat anti-rabbit HRP or anti-goat (Fisher Scientific) for 1 h, followed by final washes in 0.1% TBS-T. Membranes were imaged with enhanced chemiluminescent substrate (ECL) (Thermo Fisher) on a Bio-Rad imager.

In another assay the target is T1, hPADI4 (Homo sapiens, UniProt Q9UM07).
T1 construct: PADI4 (residues 1–663); Avi-Tag (unbiotinylated); made in house; host or cells: E. coli BL21(DE3) without BirA
T1 sequence (Q9UM07 whole entry, the tested form may be a part): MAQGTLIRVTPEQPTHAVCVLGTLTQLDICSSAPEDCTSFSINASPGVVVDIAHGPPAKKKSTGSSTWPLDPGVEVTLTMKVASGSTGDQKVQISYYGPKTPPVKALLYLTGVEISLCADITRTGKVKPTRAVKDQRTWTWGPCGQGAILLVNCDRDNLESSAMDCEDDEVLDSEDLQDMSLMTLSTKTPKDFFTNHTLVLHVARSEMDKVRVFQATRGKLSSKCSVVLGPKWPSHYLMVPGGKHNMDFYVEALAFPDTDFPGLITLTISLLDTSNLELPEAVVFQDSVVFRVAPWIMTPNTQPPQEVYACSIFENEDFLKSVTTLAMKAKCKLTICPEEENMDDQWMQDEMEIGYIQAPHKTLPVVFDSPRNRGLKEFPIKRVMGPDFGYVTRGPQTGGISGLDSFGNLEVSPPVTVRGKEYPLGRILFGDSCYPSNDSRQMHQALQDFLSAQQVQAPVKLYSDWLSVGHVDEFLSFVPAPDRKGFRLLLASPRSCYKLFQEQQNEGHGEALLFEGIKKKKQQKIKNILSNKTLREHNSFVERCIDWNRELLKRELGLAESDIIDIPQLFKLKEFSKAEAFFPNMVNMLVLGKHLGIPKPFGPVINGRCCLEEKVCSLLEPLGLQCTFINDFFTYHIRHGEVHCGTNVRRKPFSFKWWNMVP
As to the kind of experiment: COLDER assay, inhibition of PADI4 at 10 mM CaCl2 (substrate BAEE). The note with it: COLDER inhibition assay; mean of the 3 experiments printed beside it (stdev in a separate column); read-out: IC50. The assay is classed as biochemical. The method, then:
PADI4 activity was assessed using the COLDER assay[43] that measures the formation of urea-containing compounds (e.g. citrulline). The reaction was carried out in a 96-well plate with a final volume of 50 µl. His-PADI4 (50 nM) was incubated with different concentrations of peptides (100 µM to 0.3 nM) in the presence of CaCl2 (from 10 mM to 0.001 mM as specified) for 10 min. The reaction was started by the addition of 10 mM N^α-Benzoyl-L-arginine ethyl ester hydrochloride (BAEE, Merck). After 30 min, the reaction was quenched with EDTA (50 mM final concentration). For colour development, 200 µl of COLDER solution, consisting of 1 volume of solution A (80 mM diacetyl monoxime/2,3-butanedione monoxime (Merck) and 2 mM thiosemicarbazide (Acros Organics)) and 3 volumes of solution B (3 M H3PO4, 6 M H2SO4 and 2 mM NH4Fe(SO4)2) were added to each well and the mixture was heated at 95 °C for 15 min. After cooling to RT, absorbance at 540 nm was measured, and citrulline concentration was determined using a standard curve of citrulline standards. All studies were performed within the linear range of PADI4 activity, and data analysis was performed using Prism GraphPad (Dotmatics). Data are presented as the average ± standard error of the mean from at least two independent replicates.

For the next assay, the target named is T2, Bio-hPADI4 wt (Homo sapiens, UniProt Q9UM07).
T2 construct: PADI4 (residues 1–663); Avi-Tag (biotinylated by BirA); made in house; host or cells: E. coli BL21-DE3 co-expressing BirA
T2 sequence (Q9UM07 whole entry, the tested form may be a part): as above
The assay is described as follows: Surface plasmon resonance (SPR), single cycle kinetics, peptide binding to immobilised PADI4.

Where [3] appears, read: DNA area (μm) 1500, replicate 1.
Setting [4] is: DNA area (μm) 1500, replicate 2.
[5] abbreviates: DNA area (μm) 1500, replicate 4.

Where two headings read alike, the source gives them in different places. Bridge positions count the residues as written; N and C are the ends. Square brackets hold non-standard residues; d marks the D form. Peptide text beside a SMILES is read from it.

Procedure for Bio-hPADI4 wt: Single cycle kinetics analysis by SPR was carried out using a Biacore T200 or S200 and a Biotin CAPture kit, series S (Cytiva). […] 50 mM HEPES (pH 7.5), 150 mM NaCl, 2 mM DTT, 0.05 % Tween-20, 0.1% DMSO and variable CaCl2 (as specified) was used as the running buffer and experiments performed at 25 °C.
Samples were run with 120 s contact time, and variable dissociation time (often 360 s). Data were analysed using the Biacore T200 analysis software; data was fitted to a 1:1 binding model accounting for baseline drift where necessary. Data are presented as the average ± standard deviation of at least two independent replicates.

For the compound `N=C(N)NCCC[C@@H]1NC(=O)[C@H](Cc2ccc(O)cc2)NC(=O)[C@H](Cc2c[nH]cn2)NC(=O)[C@H](Cc2c[nH]cn2)NC(=O)[C@H](CC(=O)O)NC(=O)[C@H](CCCNC(=N)N)NC(=O)[C@@H](Cc2ccc(O)cc2)NC(=O)CSC[C@@H](C(=O)NCC(N)=O)NC(=O)[C@H](Cc2ccc(O)cc2)NC(=O)[C@H](CCCCN)NC(=O)[C@@H]2CCCN2C(=O)[C@H](Cc2c[nH]cn2)NC1=O` [PAD4-3] ({CH2CO}-[dY]RDHHYRHPKYCG-NH2; thioether N-12), the “share per DNA area bin” value in the assay on human neutrophils [1] (DNA area (μm) 150, replicate 1) worked out at 61.7647; in the assay on human neutrophils [1] (DNA area (μm) 150, replicate 2), 57.1429; in the assay on human neutrophils [1] (DNA area (μm) 150, replicate 3) it was 62.8571; in the assay on human neutrophils [1] (DNA area (μm) 150, replicate 4) it was 54.7619; in the assay on human neutrophils [1] (DNA area (μm) 250, replicate 1), 14.7059; with human neutrophils [1] (DNA area (μm) 250, replicate 2), 5.7143. The “share per DNA area bin” value with human neutrophils [1] (DNA area (μm) 250, replicate 3) turned out to be 5.7143; with human neutrophils [1] (DNA area (μm) 250, replicate 4) it was 21.4286; in the assay on human neutrophils [1] (DNA area (μm) 750, replicate 1) it was 23.5294; in the assay with human neutrophils [1] (DNA area (μm) 750, replicate 2) it was 37.1429; with human neutrophils [1] (DNA area (μm) 750, replicate 3), 31.4286; in the assay with human neutrophils [1] (DNA area (μm) 750, replicate 4), 23.8095. The “share per DNA area bin” value in the assay with human neutrophils [1] (setting [3]) was 0; with human neutrophils [1] (setting [4]), 0; in the assay with human neutrophils [1] (DNA area (μm) 1500, replicate 3), 0; in the assay with human neutrophils [1] (setting [5]) it was 0.

For `N=C(N)NCCC[C@@H]1NC(=O)[C@H](CC(=O)O)NC(=O)[C@@H](Cc2ccc(O)cc2)NC(=O)CSC[C@@H](C(=O)NCC(N)=O)NC(=O)[C@H](Cc2ccc(O)cc2)NC(=O)[C@H](CCCCN)NC(=O)[C@@H]2CCCN2C(=O)[C@H](Cc2c[nH]cn2)NC(=O)[C@H](CCCNC(=N)N)NC(=O)[C@H](Cc2ccc(O)cc2)NC(=O)[C@H](Cc2c[nH]cn2)NC(=O)[C@H](Cc2c[nH]cn2)NC1=O` [PAD4-3inv] ({CH2CO}-[dY]DRHHYRHPKYCG-NH2; thioether N-12), the “share per DNA area bin” value is given as 64 in the assay with human neutrophils [1] (DNA area (μm) 150, replicate 1); 52.1739 in the assay on human neutrophils [1] (DNA area (μm) 150, replicate 2); 52.1739 with human neutrophils [1] (DNA area (μm) 150, replicate 3); 45.1613 with human neutrophils [1] (DNA area (μm) 150, replicate 4); 20 in the assay on human neutrophils [1] (DNA area (μm) 250, replicate 1); 0 in the assay on human neutrophils [1] (DNA area (μm) 250, replicate 2). For the same compound, the “share per DNA area bin” value in the assay with human neutrophils [1] (DNA area (μm) 250, replicate 3) was found to be 17.3913; with human neutrophils [1] (DNA area (μm) 250, replicate 4) it was 22.5806; in the assay with human neutrophils [1] (DNA area (μm) 750, replicate 1), 16; in the assay with human neutrophils [1] (DNA area (μm) 750, replicate 2), 47.8261; in the assay on human neutrophils [1] (DNA area (μm) 750, replicate 3), 30.4348; with human neutrophils [1] (DNA area (μm) 750, replicate 4), 29.0323. For the same compound, the “share per DNA area bin” value with human neutrophils [1] (setting [3]) was found to be 0; with human neutrophils [1] (setting [4]) it was 0; in the assay with human neutrophils [1] (setting [5]) it was 3.2258.

`N=C(N)NCCC[C@@H]1NC(=O)[C@H](CC(=O)O)NC(=O)[C@@H](Cc2ccc(O)cc2)NC(=O)CSC[C@@H](C(=O)NCC(N)=O)NC(=O)[C@H](Cc2ccc(O)cc2)NC(=O)[C@H](CCCCN)NC(=O)[C@@H]2CCCN2C(=O)[C@H](Cc2c[nH]cn2)NC(=O)[C@H](CCCNC(=N)N)NC(=O)[C@H](Cc2ccc(O)cc2)NC(=O)[C@H](Cc2c[nH]cn2)NC(=O)[C@H](Cc2c[nH]cn2)NC1=O` [PADI4-3i] ({CH2CO}-[dY]DRHHYRHPKYCG-NH2; thioether N-12): the “Figure 3G quantification in Ca-I stimulated neutrophils (citrullinated H3 immunostaining)” value with human neutrophils [2] (replicate 1 (first data row)) is given as 33.3333; in the assay with human neutrophils [2] (replicate 2 (second data row)), 50; in the assay with human neutrophils [2] (replicate 3 (third data row)), 41.6667; with human neutrophils [2] (replicate 4 (fourth data row)), 50.

With `N=C(N)NCCC[C@@H]1NC(=O)[C@@H](Cc2ccc(O)cc2)NC(=O)CSC[C@@H](C(=O)NCC(N)=O)NC(=O)[C@H](Cc2ccc(O)cc2)NC(=O)[C@H](CCCCN)NC(=O)[C@@H]2CCCN2C(=O)[C@H](Cc2c[nH]cn2)NC(=O)[C@H](Cc2c[nH]c3ccccc23)NC(=O)[C@H](Cc2ccc(O)cc2)NC(=O)[C@H](Cc2c[nH]cn2)NC(=O)[C@H](Cc2c[nH]cn2)NC(=O)[C@H](CC(=O)O)NC1=O` [PADI4_3.20] ({CH2CO}-[dY]RDHHYWHPKYCG-NH2; thioether N-12), the IC50 on hPADI4 turned out to be 0.0791 µM.

With `CC[C@H](C)[C@@H]1NC(=O)[C@H](CC(C)C)NC(=O)[C@H](Cc2c[nH]c3ccccc23)NC(=O)[C@@H]2CCCN2C(=O)[C@H]([C@@H](C)O)NC(=O)[C@H](C)NC(=O)[C@@H](Cc2ccc(O)cc2)NC(=O)CSC[C@@H](C(=O)NCC(N)=O)NC(=O)[C@H](CC(C)C)NC(=O)[C@H](C(C)C)NC(=O)[C@H](C(C)C)NC1=O` [PADI4_5] ({CH2CO}-[dY]ATPWLIVVLCG-NH2; thioether N-11), the equilibrium dissociation constant (Kd) was more than 2 µM on Bio-hPADI4 wt (0 mM CaCl2, 25 °C, read-out: KD 0 mM CaCl2, bound printed in µM); more than 2 µM at Bio-hPADI4 wt (10 mM CaCl2, PADI4 active site blocked with Cl-amidine, 25 °C, read-out: KD 10 mM CaCl2 + Cl-amidine, bound given in µM); more than 2 µM at Bio-hPADI4 wt (10 mM CaCl2 in running buffer, 25 °C, read-out: KD 10 mM CaCl2, bound printed in µM).

Take `CC(C)C[C@H](NC(=O)[C@H](CCC(N)=O)NC(=O)[C@H](CC(C)C)NC(=O)[C@@H](NC(=O)[C@H](C)NC(=O)[C@H](CCCNC(=N)N)NC(=O)[C@H](Cc1ccc(O)cc1)NC(=O)[C@H](CCCNC(=N)N)NC(=O)[C@@H]1CSCC(=O)N[C@@H](Cc2ccc(O)cc2)C(=O)N[C@@H](CCC(=O)O)C(=O)N[C@@H](CO)C(=O)N1)C(C)C)C(N)=O` [Q8A] ({CH2CO}-YESCRYRAVLQL-NH2; thioether N-4): at Bio-hPADI4 wt (Fig. 5D, mean ± SEM of three independent repeats, read-out: KD (µM) of PADI4_11 analogues), the Kd came to 0.5 ± 0.3 µM.
